Experimental data taken from publication PMC7105723, “A Ganoderma-Derived Compound Exerts Inhibitory Effect Through Formyl Peptide Receptor 2” (Frontiers in Pharmacology, 2020).

Molecular target: T1, formyl peptide receptor 2 (FPR2) (Homo sapiens, UniProt P25090)
T1 construct: human FPR2 stably expressed in RBL-2H3 cells; FPR2-ICL3-FlAsH/C-terminal ECFP in HEK-293 cells for FRET
T1 sequence (P25090 1-351): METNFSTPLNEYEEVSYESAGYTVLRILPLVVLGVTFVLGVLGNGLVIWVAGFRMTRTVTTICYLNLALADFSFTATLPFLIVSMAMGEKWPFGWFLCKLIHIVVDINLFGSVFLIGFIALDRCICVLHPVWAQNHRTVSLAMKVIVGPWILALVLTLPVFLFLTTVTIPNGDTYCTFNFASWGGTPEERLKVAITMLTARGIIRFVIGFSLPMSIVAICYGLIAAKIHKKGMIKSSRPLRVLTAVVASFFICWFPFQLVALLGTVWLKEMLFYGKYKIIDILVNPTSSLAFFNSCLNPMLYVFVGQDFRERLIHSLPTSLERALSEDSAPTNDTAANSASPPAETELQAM
Test: competition with WK(FITC)YMVm on RBL-FPR2 cells by flow cytometry (partial); FlAsH FRET conformational change
Assay type: cell-based

For `CC(C)=CCC/C(C)=C/CC/C(=C/Cc1cc(O)ccc1O)CO` [C18, ganomycin F], the IC50 was 3.2 µM.
